Values quoted from earlier work as cited in paper PMC6265740, “Biochemical and Anti-Triple Negative Metastatic Breast Tumor Cell Properties of Psammaplins” (Marine Drugs, 2018).

How the values were obtained:
SIRT1 = test system: SIRT1; parameters: method as in PMID 25445714, PMID 27537898; conditions: breast tumor cells ref 36,37; cited from earlier work
MDA-MB-231 [1] = test system: MDA-MB-231; parameters: method as in PMID 28574600; conditions: embryonic zebrafish, xenografts, and orthotopic tumor models ref 38; cited from earlier work
MDA-MB-231 [2] = test system: MDA-MB-231; parameters: method as in PMID 28574600; conditions: in vitro ref 38; cited from earlier work

| SMILES | SIRT1 enzyme expression and activity (SIRT1) | MDA-MB-231 metastatic potential (MDA-MB-231 [1]) | MDA-MB-231 migration and angiogenesis (MDA-MB-231 [2]) |
| --- | --- | --- | --- |
| O=C(NCCSSCCNC(=O)/C(Cc1ccc(O)c(Br)c1)=N/O)/C(Cc1ccc(O)c(Br)c1)=N/O [Psammaplin A] | decreased SIRT1 enzyme expression and activity | – | – |
| C=CCSSSCC=C [Garlic diallyl trisulfide, diallyl trisulfide] | – | suppress MDA-MB-231 metastatic potential | inhibited MDA-MB-231 migration and angiogenesis |
